This is an account of results in PubChem BioAssay AID488890 (Southern Research Specialized Biocontainment Screening …, 2010).

pIC50: −log10 of the molar value. Records with an inconclusive call do not appear. The source made the active and inactive calls. The rule behind the calls is not given here.

This assay concerns Mycobacterium tuberculosis non-replicating, growth inhibition. Kind of assay: growth inhibition of non-replicating M. tuberculosis (AID 488890).
On to `C/C(=N\NC(=O)c1cc([N+](=O)[O-])cc([N+](=O)[O-])c1)c1ccco1`, for which the IC50 – broadly, the concentration that inhibits the measured activity by half – was 11.4 µM (inactive).
The same measure, in the same setting: in the case of `Cc1cccnc1NC(=O)c1c(O)c2ccccc2n(C)c1=O` it was 32 µM (inactive).
Regarding `O=C(CCc1ccccc1F)N1CCN(c2ccccc2)CC1`, the pIC50 (commonly the negative decadic logarithm of the IC50, by convention in mol/L) was 5.68.
Same read-out and setting: as for `C/C(=N\NC(=O)c1ccco1)c1cc(Cl)sc1Cl`, the figure is 5.31; as for `O=C(C/C=N\OCc1ccc([N+](=O)[O-])cc1)Nc1ccccc1`, 5.34.
Turning to `O=C(CCN1CCN(C/C=C/c2ccccc2)CC1)Nc1ccc(Cl)cc1`, the IC50 is 18.8 µM (inactive).
On the same count and under the same terms, in the case of `O=C(c1nnc(-c2ccc(Cl)cc2)o1)C1CCCC1` it was 11.4 µM (inactive); in that of `Cc1ccc(-c2nnc(NC3CCCC3)s2)cc1`, 23.8 µM (inactive).
The same measure, in the same setting: in the case of `Cc1cc(C)n(C(=O)c2ccc([N+](=O)[O-])cc2[N+](=O)[O-])n1` it was 24.3 µM (inactive).
On to `CCOC(=O)c1cc(-c2csc(COc3ccccc3)n2)on1`, for which the pIC50 is greater than 7.00.
Still for that read-out and setting: in the case of `CC(=O)Nc1cccc(-c2nc3ccccc3c(=O)o2)c1` it was 5.11.
Turning to `Cc1ccc2nc(NC(=O)c3ccccn3)sc2c1`, the negative logarithm of the IC50 (pIC50) was 6.20.
`Cc1ccc(C(C)C)c(OCC(=O)OCc2c(C)noc2C)c1`: the pIC50 was 5.45.
Same read-out and setting: in the case of `COCCCNC(=O)COC(=O)c1ccc(-c2nc3ccccc3s2)s1` it was 5.27.
`COc1ccc(C2(O)CCN(CC(=O)Nc3nc(-c4ccccc4)cs3)CC2)cc1`: the IC50 was 24.2 µM (inactive).
On the same count and under the same terms, as for `O=C1CC(N2CCSCC2)C(=O)N1CCc1ccccc1` (stereo not given), the figure is 19.1 µM (inactive).
Regarding `O=C(Oc1ccccc1)c1cc2ccccc2o1`, the pIC50 is 5.17.
Same read-out and setting: in the case of `O=C(COc1ccccc1)Nc1ccc(Cl)cn1` it was 5.12.
In the case of `O=C(CC1CCCC1)OCn1nnc2ccccc2c1=O`, the IC50 is 14 µM (inactive).
On to `Cc1ccc(-c2noc(CCC(=O)Nc3cccc(C#N)c3)n2)cc1`, for which the IC50 was 17.4 µM (inactive).
With `Cc1cc(OCCCn2ccnc2)ccc1C(C)C`, the pIC50 is 5.04.
Same read-out and setting: as for `CC1=NN(C(=O)c2ccoc2C)C(O)(C(F)(F)F)C1` (stereo not given), the figure is 5.79.
Same read-out and setting: as for `CCOc1cccc2cc(C(=O)Nc3nccs3)c(=O)oc12`, the figure is 5.65; as for `CCOC(=O)COc1ccc2c(=O)cc(-c3ccccc3)oc2c1`, 6.08; as for `CCOC(=O)N1CCN(Cc2cc(Cl)c3cccnc3c2O)CC1`, 5.45.
For `COC(=O)COc1ccc(-c2nn(C)c(=O)c3ccccc23)cc1`, the pIC50 was 5.37.
Turning to `O=C(Nc1ccccn1)c1ccc([N+](=O)[O-])o1`, the pIC50 is 6.11.
On the same count and under the same terms, as for `O=C(Nc1nnc(-c2ccc(Cl)cc2)o1)c1nc2ccccc2s1`, the figure is 6.60.
As for `O=C(c1ccccc1)c1nc[nH]c1C(=O)Nc1ccccc1`, the IC50 is 11.5 µM (inactive).
Same read-out and setting: as for `Cc1ccc(-c2ccc(/C=N/NC(=O)CN3CCOCC3)o2)cc1[N+](=O)[O-]`, the figure is 32.2 µM (inactive).
Consider `CN(Cc1ccccc1)C(=O)c1ccc([N+](=O)[O-])o1`, for which the pIC50 was 5.48.
Take `CN1C/C(=C/c2cccnc2)C(=O)/C(=C/c2cccnc2)C1`: the IC50 was 23.5 µM (inactive).
For `O=C(COc1ccccc1)Nc1ccc(F)cc1`, the pIC50 is 5.07.
As for `CCC(C)(C)c1ccc(OCC(=O)Nc2ccncc2)cc1`, the pIC50 was 5.36.
As for `Cc1ccc(N2C(=O)CC(Sc3nccc(C)n3)C2=O)cc1` (stereo not given), the IC50 is 29.6 µM (inactive).
As to `Cc1ccc(C)c(-c2nnc(NC(=O)c3ccc([N+](=O)[O-])o3)o2)c1`, the pIC50 was 6.34.
Turning to `CCC(=O)c1ccc(OCc2ccc(C(=O)OC)cc2)cc1`, the IC50 is 10.8 µM (inactive).
On the same count and under the same terms, in the case of `CCOC(=O)Cn1c2ccc(F)cc2c2nc(C)sc21` it was 13.8 µM (inactive).
With `CCc1ccc(OCCNc2cc(N3CCNC(C)C3)ccc2[N+](=O)[O-])cc1` (stereo not given), the pIC50 is 5.54.
Same read-out and setting: as for `O=C(COc1ccc2ccccc2c1)Nc1ccncc1`, the figure is 5.50.
